# Laboratory results as given in patent US20100292306A1, “Compositions And Methods For The Treatment Of Muscular Dystrophy” (priority 2005, published 2010).
# “Also recorded” adds a separate entry of the source.
# Assays:
# Format in all cases: in vivo, mdx mice
# NFκB = experiment: Trans AM assays of NFκB in gastrocnemius muscle preparations; details: chronic PDTC
# Description: The Trans AM assay and corresponding electrophoretic mobility shift assays (EMSA), along with Western Blot analyses of IκB-α (FIG. 1) and total cellular NFκB, are useful for screening compounds that inhibit the NFκB pathway in dystrophic skeletal muscle and identifying new compounds that have corresponding beneficial effects in treating dystrophic subjects.
# mdx TS muscle fibers = experiment: Intracellular recording of resting membrane potential in TS muscle fibers after chronic treatment
# cytosolic IκB-α = experiment: Western blot of cytosolic IκB-α in mdx diaphragm after a single PDTC dose
# Procedure: Cytosolic levels of IκB-α may be determined using Western blot techniques. Cytosolic and nuclear fractions may be obtained from isolated diaphragm muscles using the techniques described in Kumar and Boriek, 2003. Briefly, the muscles may be weighed after removing tendinous components, and frozen and homogenized by mortar and pestle in lysis buffer on ice (1 mg muscle/18 μl lysis buffer containing 10 mM HEPES, 10 mM KCl, 1.5 mM MgCl2, 0.1 mM EDTA, 0.1 mM EGTA, 1 mM dithiothreitol, 0.5 mM phenylmethylsulfonylfluoride, 2.0 μg/ml leupeptin, 2.0 μg/ml aprotinin, 0.5 mg/ml benzamidine, at pH 7.9). To lyse the cells, the ground tissue may be subjected to two freeze-thaw cycles and subsequently vortexed and centrifuged (13,000 rpm, 10 s). […]
# Equal amounts of proteins (based on Lowry Assay) from treated vs. untreated cytosolic fractions may be boiled in SDS-PAGE sample buffer for 5 min, applied to 10% SDS-PAGE gel, and blotted onto PVDF (polyvinyl difluoride) membrane. […] After additional washing steps, the antibody complex may be detected by chemiluminescence using the ECL detection reagent (Amersham) and densitometric measurements may also be obtained. […]
# [1] = Series 3 aged mdx mice, P<0.001 vs saline littermates
smiles,measurement,setting,value
"S=C(S)N1CCCC1 [PDTC, pyrrolidine dithiocarbamate]",proportion of total cellular NFκB in the cytosolic fraction,NFκB,increases
same,proportion of nuclear NFκB,NFκB; adult mdx,reduces
same,total cellular NFκB,NFκB; adult mdx,reduces
same,resting potential of TS fibers,"mdx TS muscle fibers; 50 mg/kg ip 48-76 days, mature mdx mice Series 2 and Series 3",significantly increases
same,resting potential,"mdx TS muscle fibers; Series 1 daily PDTC, middle and caudal regions, relative to nondystrophic levels",completely restored; also recorded: restores
same,"increase in resting potential, caudal region",mdx TS muscle fibers; Series 2 daily PDTC,not
same,"resting potential, middle region","mdx TS muscle fibers; Series 2 daily PDTC, saline −35.8 mV, P<0.05",−45.4 mV
same,"average resting potential, middle region","mdx TS muscle fibers; Series 3 aged mdx mice, N=9 fibers, 2 mice",−32.2±6.5 mV
same,"resting potential, caudal region",mdx TS muscle fibers; [1],approximately −45 mV
same,"resting potential, overall (middle, caudal, cephalad combined)",mdx TS muscle fibers; [1],~−40 mV
same,overall resting potential,"mdx TS muscle fibers; Series 4: administration initiated at 5 months, read at 6.5-13.5 months, N=64 fibers, 3 TS muscles",-49.3 ± 1.4 mV
same,average resting potential,"mdx TS muscle fibers; Series 4: mdx mouse treated between 5 and 13.5 months, N=22 fibers",−53.3±2.0 mV
same,period of increased cytosolic IκB-α levels,"cytosolic IκB-α; single dose 50 mg/kg ip, adult mdx skeletal muscle",at least 5 h
same,ambient levels of cytosolic IκB-α,"cytosolic IκB-α; single ip dose 50 mg/kg, diaphragm 3 and 5 h after injection, vs vehicle littermates, 50 mg/kg",substantially increased; also recorded: increases
